Measured values taken from US20250230193A1, “CYCLIC COMPOUND HAVING SELECTIVE KRAS INHIBITORY EFFECT ON HRAS AND NRAS” (CHUGAI SEIYAKU KABUSHIKI KAISHA, priority 2022, published 2025).
Where a SMILES comes first, the peptide text is derived from it. Bridges are numbered along the chain shown (N, C = ends). [ ]: non-standard residue; d: D form. The star is where a group is joined. hPhe(3-Cl-4-CF3) = N[C@@H](CCc1ccc(C(F)(F)F)c(Cl)c1)C(=O)O; NPrPhe(4-Me) = CCCN[C@@H](Cc1ccc(C)cc1)C(=O)O; NMeGly(cPent) = CN[C@H](C(=O)O)C1CCCC1; NMeD = CN[C@@H](CC(=O)O)C(=O)O; NMeL = CN[C@@H](CC(C)C)C(=O)O; Morpholide = C1CN(*)CCO1; NMeA = CN[C@@H](C)C(=O)O; Ac5c = NC1(C(=O)O)CCCC1; Aze = O=C(O)[C@@H]1CCN1; NEtG = CCNCC(=O)O

Assays:
[1] = target: GDP-bound NRAS wild-type protein (Homo sapiens, UniProt P01111); experiment: Binding to NRAS by surface plasmon resonance (SPR), Single Cycle Kinetics; conditions: for NRAS/KRAS (ratio of KD value with respect to GDP-bound NRAS wild-type protein to KD value with respect to KRAS): class symbols
[2] = target: GDP-bound HRAS wild-type protein (Homo sapiens, UniProt P01112); experiment: Binding to HRAS by surface plasmon resonance (SPR), Single Cycle Kinetics; conditions: for HRAS/KRAS (ratio of KD value with respect to GDP-bound HRAS wild-type protein to KD value with respect to KRAS): class symbols
[3] = KD ratio, GDP-bound NRAS wild-type vs GDP-bound KRAS wild-type, SPR
[4] = KD ratio, GDP-bound HRAS wild-type vs GDP-bound KRAS wild-type, SPR

GDP-bound HRAS wild-type protein, sequence (P01112 whole entry): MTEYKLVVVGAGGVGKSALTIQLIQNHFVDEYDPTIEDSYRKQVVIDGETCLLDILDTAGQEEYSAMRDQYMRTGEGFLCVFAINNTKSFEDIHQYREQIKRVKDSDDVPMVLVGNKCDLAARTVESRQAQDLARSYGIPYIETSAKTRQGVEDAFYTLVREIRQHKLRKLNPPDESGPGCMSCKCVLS
GDP-bound NRAS wild-type protein, sequence (P01111 whole entry): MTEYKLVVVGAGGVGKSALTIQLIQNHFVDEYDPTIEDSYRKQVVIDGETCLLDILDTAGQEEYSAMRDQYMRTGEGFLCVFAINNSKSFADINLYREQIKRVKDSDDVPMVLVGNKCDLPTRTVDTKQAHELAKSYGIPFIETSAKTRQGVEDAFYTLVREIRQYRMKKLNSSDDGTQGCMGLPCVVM

Structure (SMILES): CCC(CC)[C@H]1C(=O)N(C)[C@H](C(=O)N(C)C)CC(=O)N(C)[C@@H](COC)C(=O)N[C@@H]([C@@H](C)CC)C(=O)N(C)CC(=O)N(C)[C@H]2C/C=C\CCN(C2=O)[C@@H](Cc2ccc(C)cc2)C(=O)N(C)CC(=O)N[C@@H](CCc2ccc(Cl)c(Cl)c2)C(=O)N2C[C@H](OC3CCC3)C[C@H]2C(=O)N(C)C2(CC(C)(C)C2)C(=O)N1C [PP2816]
- NRAS/KRAS (ratio of KD value with respect to GDP-bound NRAS wild-type protein to KD value with respect to KRAS) ([1]; KD ratio NRAS/KRAS): AA (a compound having 20 or more is denoted as AA)
- HRAS/KRAS (ratio of KD value with respect to GDP-bound HRAS wild-type protein to KD value with respect to KRAS) ([2]; KD ratio HRAS/KRAS): A (a compound having 10 or more and less than 20 is denoted as A)

Structure (SMILES): CCCN(C)C(=O)[C@@H]1CC(=O)N(C)[C@@H](CC2CC2)C(=O)N[C@@H]([C@@H](C)CC)C(=O)N(C)CC(=O)N(C)[C@H]2C/C=C\CCN(C2=O)[C@@H](Cc2ccc(C(F)(F)F)cc2)C(=O)N(C)CC(=O)N[C@@H](CCc2cc(F)c(C(F)(F)F)c(F)c2)C(=O)N2C[C@H](OCC)C[C@H]2C(=O)NC2(CC(F)(F)C2)C(=O)N(C)[C@@H](C2CCCC2)C(=O)N1C [PP1739]
- NRAS/KRAS (ratio of KD value for NRAS to KD value for KRAS) [1, 3]: AA (a compound having 20 or more is denoted as AA)
- HRAS/KRAS (ratio of KD value for HRAS to KD value for KRAS) [2, 4]: AA (a compound having 20 or more is denoted as AA)

Structure (SMILES): CCC[C@H]1C(=O)N[C@@H]([C@@H](C)CC)C(=O)N(C2CC2)CC(=O)N(C)[C@H]2C/C=C\CCN(C2=O)[C@@H](Cc2ccc(C(F)(F)F)cc2)C(=O)N(C)CC(=O)N[C@@H](CCc2cc(F)c(C(F)(F)F)c(F)c2)C(=O)N2C[C@H](OCC)C[C@H]2C(=O)NC2(CC(C)(C)C2)C(=O)N(C)[C@@H](CC2CC2)C(=O)N(C)[C@H](C(=O)N(C)C)CC(=O)N1C [PP2813]
- NRAS/KRAS (ratio of KD value with respect to GDP-bound NRAS wild-type protein to KD value with respect to KRAS) ([1]; KD ratio NRAS/KRAS): AA (a compound having 20 or more is denoted as AA)
- HRAS/KRAS (ratio of KD value with respect to GDP-bound HRAS wild-type protein to KD value with respect to KRAS) ([2]; KD ratio HRAS/KRAS): A (a compound having 10 or more and less than 20 is denoted as A)

Structure (SMILES): CCO[C@@H]1C[C@H]2C(=O)NC3(CC(C)(C)C3)C(=O)N(C)[C@@H](C(CC)CC)C(=O)N(C)[C@H](C(=O)N3CCCC3)CC(=O)N(C)[C@@H](CC)C(=O)N[C@@H]([C@@H](C)CC)C(=O)N(C)CC(=O)N(C)[C@H]3C/C=C\CCN(C3=O)[C@@H](Cc3ccc(C)cc3)C(=O)N(C)CC(=O)N[C@@H](CCc3ccc(C(F)(F)F)c(OC)c3)C(=O)N2C1 [PP2171]
- NRAS/KRAS (ratio of KD value with respect to NRAS to KD value with respect to KRAS) ([1]; SPR, GDP-bound NRAS wild-type vs GDP-bound KRAS wild-type): A (a compound having 10 or more and less than 20 is denoted as A)
- HRAS/KRAS (ratio of KD value with respect to HRAS to KD value with respect to KRAS) ([2]; SPR, GDP-bound HRAS wild-type vs GDP-bound KRAS wild-type): A (a compound having 10 or more and less than 20 is denoted as A)

Structure (SMILES): CCO[C@H]1CCN2C(=O)[C@H](CCc3cc(F)c(C(F)(F)F)c(F)c3)NC(=O)CN(C)C(=O)[C@H](Cc3ccc(C(F)(F)F)cc3)N3CCCCC[C@@H](C3=O)N(C)C(=O)CN(C)C(=O)[C@H]([C@@H](C)CC)NC(=O)[C@H](CC(C)C)N(C)C(=O)C[C@@H](C(=O)N3CCOCC3)N(C)C(=O)[C@H](C3CCCC3)N(C)C(=O)C3(CCC3)NC(=O)[C@H]12 [PP1068]
- NRAS/KRAS (ratio of KD value with respect to NRAS to KD value with respect to KRAS) [1, 3]: A (a compound having 10 or more and less than 20 is denoted as A)
- HRAS/KRAS (ratio of KD value with respect to HRAS to KD value with respect to KRAS) [2, 4]: B (a compound having 3 or more and less than 10 is denoted as B)

Structure (SMILES): CCCN1C(=O)[C@@H]2CCN2C(=O)[C@H](C)N(C)C(=O)[C@H]([C@@H](C)CC)NC(=O)[C@H](CC(C)C)N(C)C(=O)C[C@@H](C(=O)N2CCOCC2)N(C)C(=O)[C@H](C2CCCC2)N(C)C(=O)C2(CCCC2)NC(=O)[C@@H]2CCCN2C(=O)[C@H](CCc2ccc(C(F)(F)F)c(Cl)c2)NC(=O)CN(CC)C(=O)[C@@H]1Cc1ccc(C)cc1 [PP0058] ([NMeL]I[NMeA][Aze][NPrPhe(4-Me)][NEtG][hPhe(3-Cl-4-CF3)]P[Ac5c][NMeGly(cPent)][NMeD]-Morpholide; lactam N-11)
- NRAS/KRAS (ratio of KD for GDP-bound NRAS wild-type to KD for KRAS) ([1]; KD ratio NRAS/KRAS, SPR): C (A compound having a KD ratio of 0.1 or more and less than 3 is denoted as C)
- HRAS/KRAS (ratio of KD for GDP-bound HRAS wild-type to KD for KRAS) ([2]; KD ratio HRAS/KRAS, SPR): C (A compound having a KD ratio of 0.1 or more and less than 3 is denoted as C)

Structure (SMILES): CC[C@H](C)[C@@H]1NC(=O)[C@H](COC)N(C)C(=O)C[C@@H](C(=O)N2CCOCC2)N(C)C(=O)[C@H](C2CCCC2)N(C)C(=O)C2(CCC2)NC(=O)[C@@H]2C[C@H](OC)CN2C(=O)[C@H](CCc2cc(F)c(C(F)(F)F)c(F)c2)NC(=O)CN(C)C(=O)[C@H](Cc2ccc(C(F)(F)F)cc2)N2CCCCC[C@@H](C2=O)N(C)C(=O)CN(C)C1=O [PP0836]
- NRAS/KRAS (ratio of KD value with respect to NRAS to KD value with respect to KRAS) [1, 3]: B (a compound having 3 or more and less than 10 is denoted as B)
- HRAS/KRAS (ratio of KD value with respect to HRAS to KD value with respect to KRAS) [2, 4]: B (a compound having 3 or more and less than 10 is denoted as B)
